According to patent US20240423973A1, “COMPOUNDS, PHARMACEUTICAL COMPOSITIONS, AND METHODS FOR THE TREATMENT, PREVENTION, OR MANAGEMENT OF HYPERPROLIFERATIVE DISORDERS” (VINCERX PHARMA GMBH, priority 2021, published 2024):

Legend:
[1] = tested on: NCI H292; assay: Cytotoxicity in vitro in the presence and absence of elastase (MTT assay); type: cell-based, human; settings: NCI H292 cells, 72 h
Description: (§1) Cultivation of cells was performed according to standard procedures with the media recommended by the provider. The cells, in a total volume of 100 μL, were seeded in a 96-well plate with a white bottom (#3610). After a 24 h incubation period at 37° C. and 5% CO2, the medium was exchanged by adding 90 μL fresh medium. The treatment started by adding the test compound in 10 μL of culture medium to the cells in triplicates. Concentrations ranging from 10^−5 M to 10^−13 M were chosen. Two identically treated sets of samples were prepared. One set was treated with the test compound alone, whereas to the second set the compound and 10 nM elastase was added followed by a 72 h incubation period at 37° C. and 5% CO2. The proliferation was detected using the MTT assay (ATCC). At the end of the incubation period the MTT reagent was added to all samples for 4h. Lysis of the cells followed by addition of the detergent was done overnight. The formed dye was detected at 570 nm. The proliferation of untreated but otherwise identically handled cells was define as the […].

[2] = tested on: HT29; assay: as above; type: cell-based, human; settings: HT29 cells, 72 h
Description: as §1

[3] = tested on: 786-O; assay: as above; type: cell-based, human; settings: 786-O cells, 72 h
Description: as §1

[4] = tested on: SUM149; assay: as above; type: cell-based; settings: SUM149 cells, 72 h
Description: as §1

[5] = Pharmacokinetics in rat after intravenous administration; type: in vivo; settings: male rats, intravenous 0.5 mg/kg bolus, plasma, non-compartmental analysis; for Vd: read-out: Vss
Description: Male rats (n=3) were given an intravenous 0.5 mg/kg bolus dose of test article dissolved in plasma with 1% DMSO and 1% ethanol (Ex A3 only). Serial blood samples were collected up to 24 hours post-dose. Plasma was harvested from blood samples and stored frozen until sample analysis. Test article plasma concentrations were analyzed by LC/MS/MS.

SMILES | IC50 ([1]; compound alone (no elastase)) | IC50 ([1]; with 10 nM elastase) | IC50 ([2]; compound alone (no elastase)) | IC50 ([2]; with 10 nM elastase) | IC50 ([3]; compound alone (no elastase)) | IC50 ([3]; with 10 nM elastase) | IC50 ([4]; compound alone (no elastase)) | IC50 ([4]; with 10 nM elastase) | AUC [5] | clearance [5] | half-life [5] | Vd [5]
CCCNC(=O)Nc1cccc(S(=O)(=O)Nc2cccc([C@@H](CC(=O)OCC[N+](C)(C)C)NC(=O)Nc3ccc(NC(=O)NCCOCCOCCOCCC(=O)N[C@@H](CC(=O)OCC[N+](C)(C)C)C(=O)N4CCC[C@H]4C(=O)N[C@H](C(=O)O[C@]4(CC)C(=O)OCc5c4cc4n(c5=O)Cc5c-4nc4ccccc4c5CC)C(C)C)cc3)c2)c1 [Compound C9] | 10 to 100 nM | 0.1 to 1 nM | 10 to 100 nM | 0.1 to 1 nM | 10 to 100 nM | 1.1 to 10 nM | 10 to 100 nM | 0.1 to 1 nM |  |  |  | 
CCCNC(=O)Nc1cccc(S(=O)(=O)Nc2cccc([C@@H](CC(=O)O)NC(=O)Nc3ccc(NC(=O)NCCN(C)CCN(C)CCN(C)CC(=O)NCCN(C)CCN(C)CCN(C)CC(=O)N[C@@H](CC(N)=O)C(=O)N4CCC[C@H]4C(=O)N[C@H](C(=O)O[C@]4(CC)C(=O)OCc5c4cc4n(c5=O)Cc5c-4nc4ccccc4c5CC)C(C)C)cc3)c2)c1 [Compound D1] | 10 to 100 nM | 1.1 to 10 nM | 10 to 100 nM | 1.1 to 10 nM | 10 to 100 nM | 1.1 to 10 nM | 10 to 100 nM | 0.1 to 1 nM |  |  |  | 
CCCNC(=O)Nc1cccc(S(=O)(=O)Nc2cccc([C@@H](CC(=O)O)NC(=O)Nc3ccc(NC(=O)NCCCC[C@H](NC(=O)Nc4ccc(NC(=O)N[C@H](CC(=O)O)c5cccc(NS(=O)(=O)c6cccc(NC(=O)NCCC)c6)c5)cc4)C(=O)NCCOCCOCCOCCC(=O)N[C@@H](CC(=O)O)C(=O)N4CCC[C@H]4C(=O)N[C@H](C(=O)O[C@]4(CC)C(=O)OCc5c4cc4n(c5=O)Cc5c-4nc4ccccc4c5CC)C(C)C)cc3)c2)c1 [Compound A1, Trisodium (4S)-4,11-diethyl-3,14-dioxo-3,4,12,14-tetrahydro-1H-pyrano[3′,4′:6,7]indolizino [1,2-b]quinoline-4-yl 1-[(2S)-15-{[N^2,N^6-bis({4-[({(1R)-2-carboxylato-1-[3-({3-[(propylcarbamoyl)amino]benzene-1-sulfonyl}amino)phenyl]ethyl}carbamoyl)amino]phenyl}carbamoyl)-L-lysyl]amino}-2-(carboxylatomethyl)-4-oxo-7,10,13-trioxa-3-azapentadecanan-1-oyl]-L-prolyl-L-valinate] | 10 to 100 nM | 0.1 to 1 nM | > 100 nM | 0.01 to 0.1 nM | 10 to 100 nM | 0.1 to 1 nM | 10 to 100 nM | 0.01 to 0.1 nM |  |  |  | 
CCCNC(=O)Cc1cccc(S(=O)(=O)Nc2cccc([C@@H](CC(=O)O)NC(=O)Nc3ccc(NC(=O)NCCOCCOCCOCCC(=O)N[C@@H](CCCCNC(=O)CCOCCOCCOCCNC(=O)Nc4ccc(NC(=O)N[C@H](CC(=O)O)c5cccc(CS(=O)(=O)c6cccc(NC(=O)NCCC)c6)c5)cc4)C(=O)NCCN(C)CCN(C)CCN(C)CC(=O)N[C@@H](CC(N)=O)C(=O)N4CCC[C@H]4C(=O)N[C@H](C(=O)O[C@]4(CC)C(=O)OCc5c4cc4n(c5=O)Cc5c-4nc4ccccc4c5CC)C(C)C)cc3)c2)c1 [Compound A5] | 1.1 to 10 nM | < 0.01 nM | 10 to 100 nM | 0.01 to 0.1 nM | 10 to 100 nM | 0.01 to 0.1 nM | 1.1 to 10 nM | < 0.01 nM |  |  |  | 
CCCNC(=O)Nc1cccc(S(=O)(=O)Nc2cccc([C@@H](CC(=O)O)NC(=O)Nc3ccc(NC(=O)NCCOCCOCCOCCC(=O)N[C@@H](CCCCNC(=O)CCCC(=O)NCCOCCOCCOCCC(=O)N[C@@H](CC(=O)O)C(=O)N4CCC[C@H]4C(=O)N[C@H](C(=O)O[C@]4(CC)C(=O)OCc5c4cc4n(c5=O)Cc5c-4nc4ccccc4c5CC)C(C)C)C(=O)NCCC(=O)O)cc3)c2)c1 [Compound E1] |  |  |  |  |  |  |  |  | 10 to 50 µg·h/mL | 0.03 to 0.3 L/h/kg | 5 to 10 h | > 0.1 L/kg
CCCNC(=O)Nc1cccc(S(=O)(=O)Nc2cccc([C@@H](CC(=O)O)NC(=O)Nc3ccc(NC(=O)NCCOCCOCCOCCC(=O)N[C@@H](CCCCNC(=O)CCCC(=O)NCCOCCOCCOCCC(=O)N[C@@H](CC(=O)O)C(=O)N4CCC[C@H]4C(=O)N[C@H](C(=O)O[C@]4(CC)C(=O)OCc5c4cc4n(c5=O)Cc5c-4nc4ccccc4c5CC)C(C)C)C(=O)NCCCCCCCC(=O)O)cc3)c2)c1 [Compound E2] |  |  |  |  |  |  |  |  | 50 to 150 µg·h/mL | 0.03 to 0.3 L/h/kg | 5 to 10 h | 0.01 to 0.1 L/kg
